Measurements: paper PMC6858345, “Structural insights into heme binding to IL-36α proinflammatory cytokine” (Scientific Reports, 2019)
Residue numbers refer to the chain shown, from its start. In names and notes the source's numbering stands. Read-outs that look alike come from different tables or passages of the source. Values belong to the molecule of their own block, whether it stands above or below them.

Assays:
[1] = Fluorescence quenching of heme-incubated proteins; format: binding; details: λex 306 nm, λem 352 nm; protein 1 µM, heme 0.1-16 µM
Protocol: All measurements were performed on a fluorescence spectrophotometer FP-8300 (Jasco, Tokyo, Japan). BSA (1 µM) and lysozyme (1 µM) were dissolved in PBS buffer (pH 7.4) and IL-36α variants (1 µM) in 20 mM sodium phosphate buffer (pH 6.9), were each dissolved in and incubated for 60 minutes with varying heme concentrations (0.1–16 µM) in the dark. Parameters were set to excitation at 306 nm, emission at 352 nm, bandwidth 10 nm (extinction) and 20 nm (emission)[30].

[2] = Surface plasmon resonance (SPR) of heme binding to immobilized proteins, single-cycle kinetics
Protocol: SPR measurements were performed on a Biacore T200 instrument (GE Healthcare Europe GmbH, Freiburg, Germany) at 25 °C. The running buffer was 10 mM HEPES (pH 7.4), 150 mM NaCl, 0.05% Tween 20. The proteins BSA (VWR Life Science AMRESCO, Germany), lysozyme (AppliChem GmbH, Darmstadt, Germany), IL-36α (protein expression), trIL-36α (R&D Systems, Minneapolis, MN, USA), trIL-36β (isoform 2, R&D Systems, Minneapolis, MN, USA) and trIL-36γ (R&D Systems, Minneapolis, MN, USA) were covalently immobilized by amine coupling on a CM5 sensor chip (GE Healthcare). Briefly, lysozyme was diluted to a final concentration of 2.5 µg/mL in acetate buffer (pH 7.0), and BSA was diluted to 2.5 µg/mL in acetate buffer (pH 5.0). trIL-36α, trIL-36β, and trIL-36γ were diluted to 0.85 µg/mL in acetate buffer (pH 4.0). Subsequently, the proteins were separately injected at 10 µL/min on an EDC/NHS activated flow cell until immobilization levels of 1600 RU (lysozyme), 1050 RU (trIL-36α), 2900 RU (BSA), 937 RU (trIL-36β), and 320 RU (trIL-36γ) were achieved. An activated/deactivated flow cell was used for reference subtraction. […]

[3] = tested on: synovial fibroblast-like synoviocytes (FLS) from RA patients; assay: IL-6/IL-8 mRNA expression (qRT-PCR) in stimulated FLS; format: cell-based, human; details: 24 h; for IL-6 and IL-8 expression (mRNA) in FLS: IL-36α 5.8 nM, heme 0.15 and 1.5 µM (ratios 26:1 and 260:1)
Protocol: Human fibroblast-like synoviocytes (FLS) were isolated from knee joints of rheumatoid arthritis patients obtained at the University Hospital Erlangen-Nuremberg[69]. All patients gave written informed consent, and their use for research was approved by the ethics committee of the University hospital Erlangen (ethic licenses 4013 and 4065). We confirm that all methods were performed in accordance with the relevant guidelines and regulations. Human RA FLS kept at 37 °C and 5% CO2 in a humidified incubator upon isolation. They were cultured in RPMI and DMEM at a ratio of 1:5, supplemented with 50 U/mL penicillin, 50 μg/mL streptomycin, 0.2% amphotericin and 2% fetal bovine serum. Cells between passages 3 to 8 were used. For stimulation experiments, human FLS from RA patients were seeded at a concentration of 100,000 cells/mL in 500 μL culture medium in a 48-well plate one day prior to the experiment. […] Cells were then incubated for either 5 min (western blot analysis of phosphorylation) or 24 h (qPCR and ELISA). Sample separation was performed by a reducing […] (10% SDS polyacrylamide gel) and blotted to a nitrocellulose membrane by semi-dry transfer. […] Cell viability was analyzed using the AlamarBlue assay according to the manufacturer's instruction (#741802, Invitrogen, Carlsbad, CA, USA), and absorbance was measured at 570 nm and 600 nm. For performing quantitative real-time PCR (qRT-PCR), RNA was isolated from FLS with […], Germany), followed by first-strand cDNA synthesis using the MultiScribeTM MuLV reverse transcriptase (Applied Biosystems, Foster City, CA, USA), both according to manufacturer's instruction. Relative gene expression was assessed by qRT-PCR using the Applied Biosystems 7500 fast-real-time-PCR System (Applied Biosystems) with SYBR® Select Master Mix (ThermoFisher Scientific) as detection method, according to the manufacturer's manual. Samples and the housekeeping gene GAPDH as endogenous control were analyzed in duplicates. […]

[4] = tested on: synovial fibroblast-like synoviocytes (FLS) from RA patients; assay: p38 activation in FLS (western blot of P-p38); format: cell-based, human; details: 5 min stimulation
Protocol: Human fibroblast-like synoviocytes (FLS) were isolated from knee joints of rheumatoid arthritis patients obtained at the University Hospital Erlangen-Nuremberg[69]. All patients gave written informed consent, and their use for research was approved by the ethics committee of the University hospital Erlangen (ethic licenses 4013 and 4065). We confirm that all methods were performed in accordance with the relevant guidelines and regulations. Human RA FLS kept at 37 °C and 5% CO2 in a humidified incubator upon isolation. They were cultured in RPMI and DMEM at a ratio of 1:5, supplemented with 50 U/mL penicillin, 50 μg/mL streptomycin, 0.2% amphotericin and 2% fetal bovine serum. Cells between passages 3 to 8 were used.
For stimulation experiments, human FLS from RA patients were seeded at a concentration of 100,000 cells/mL in 500 µL culture medium in a 48-well plate one day prior to the experiment. Before stimulation of FLS, heme was pre-incubated with trIL-36α or trIL-36α protein mutants with substituted amino acids in the proposed heme-binding site in medium for 1 h at room temperature in the dark. […] Cell viability was analyzed using the AlamarBlue assay according to the manufacturer’s instruction (#741802, Invitrogen, Carlsbad, CA, USA), and absorbance was measured at 570 nm and 600 nm.

[5] = UV/Vis differential spectroscopy of heme-incubated proteins and peptides; format: binding; details: peptide 20 µM, 30 min, 100 mM Hepes pH 7.0; read-out: KD for UV/Vis, IL-36α-derived peptides
Protocol: (§1) A Multiskan GO microplate spectrophotometer (ThermoFisher Scientific, Dreieich, Germany) was used for UV/Vis measurements. Heme and peptide solutions were prepared in 100 mM Hepes buffer (pH 7.0). IL-36 cytokines (~5 µM), dissolved in 20 mM sodium phosphate buffer (pH 6.9), were incubated with heme (0.2 to 40 µM) in the dark at room temperature for 60 minutes before UV/Vis spectra were measured at 300 to 600 nm. Protein concentrations were corrected using the calculated molar absorption coefficient at 280 nm. Peptides 1–7 (20 µM) were incubated with heme for 30 minutes in the dark at room temperature.

[6] = Peroxidase-like activity of heme complexes; format: biochemical; details: protein:heme 1:1 and 1:2
Text: A peroxidase-like activity of heme-peptide/protein complexes has been discussed to be critical due to cytotoxic ROS formation[4],[43]–[45]. We thus tested the peroxidase-like activity of IL-36α-heme-complexes in two different ratios (1:1 and 1:2, protein:heme) as well as of both heme-binding motifs (CP, YH) on the peptide level (Supplementary Fig. S5E).

IL-36α = target: T1, IL-36α (Homo sapiens, UniProt Q9UHA7); assay: UV/Vis differential spectroscopy, protoporphyrin IX applied to IL-36α; format: binding
T1 construct: three additional amino acids (Gly-Ser-His) attached at the N-terminus of full-length IL-36α (161 amino acids); His6 tag with thrombin cleavage site (N, cleaved yes); made in house; host or cells: Escherichia coli BL21(DE3), pET-28a
T1 sequence (Q9UHA7 6-158): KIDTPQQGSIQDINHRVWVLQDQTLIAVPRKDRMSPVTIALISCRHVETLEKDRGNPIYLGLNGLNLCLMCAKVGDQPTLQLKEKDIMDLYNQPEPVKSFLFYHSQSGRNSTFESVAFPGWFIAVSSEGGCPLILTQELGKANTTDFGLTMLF
Protocol: as §1

[7] = parameters: method as in PMID 23730736; details: UV shift to ~366 nm; read-out: Heme binding affinity of the 9mer CP-motif (UV/Vis); cited from earlier work

Heme binding by fluorescence quenching (in words) [1]: non-binder
Heme binding by SPR (in words) [2]: non-binder
Molecule: Lysozyme: negative control (non-binder) for heme binding [reference compound]

Molecule: C=CC1=C(C)C2=Cc3c(C=C)c(C)c4[n]3[Fe+][n]3c(c(C)c(CCC(=O)O)c3=CC3=NC(=C4)C(C)=C3CCC(=O)O)=CC1=N2 [heme]
IL-6 and IL-8 expression (mRNA) in FLS [3]: did not have an effect
Activation of p38 in IL-36α-mediated signaling [4]: decreased activation of p38

Kd [5]: 4.48 ± 2.2 µM
Peroxidase-like activity relative to heme (100%) [6]: No significant increase
Molecule: FLFY108H109SQSG (FLFYHSQSG; UniProt Q9UHA7 105-113, looked up, fragment) [Peptide 1, IL-36α-derived 9mer wild-type YH motif peptide]

Molecule: C=CC1=C(C)c2cc3[nH]c(cc4nc(cc5[nH]c(cc1n2)c(C)c5CCC(=O)O)C(CCC(=O)O)=C4C)c(C)c3C=C [protoporphyrin IX (PPIX), protoporphyrin IX]
Effect on UV/Vis differential spectrum of IL-36α (IL-36α): No effect

Molecule: SEGGC136P137LIL (SEGGCPLIL; UniProt Q9UHA7 132-140, looked up, fragment) [9mer CP-motif]
Kd [7]: 3.75 ± 0.77 µM

Heme binding by fluorescence quenching (in words) [1]: confirmed
Peroxidase-like activity relative to heme (100%) [6]: No significant increase
B1: IL-36α: full-length interleukin-36α, recombinantly expressed in E. coli (protein, UniProt Q9UHA7 1-158, looked up)
chain: MEKALKIDTPQQGSIQDINHRVWVLQDQTLIAVPRKDRMSPVTIALISCRHVETLEKDRGNPIYLGLNGLNLCLMCAKVGDQPTLQLKEKDIMDLYNQPEPVKSFLFYHSQSGRNSTFESVAFPGWFIAVSSEGGCPLILTQELGKANTTDFGLTMLF
modifications: full-length
notes: full-length interleukin-36α, recombinantly expressed in E. coli
IL-6 and IL-8 expression (mRNA) in FLS [3]: induced IL-6 and IL-8 expression

B2: C136SP137A: IL-36α protein mutant C136S P137A (protein, UniProt Q9UHA7 6-158, looked up, variant C136S P137A)
Interleukin-36 alpha: T1 sequence (Q9UHA7 6-158) with C131S, P132A
IL-6 expression / biological activity of IL-36α mutants in FLS ([3]; 5.8 nM protein, compared to IL-36α): showed biological activity, even if reduced with respect to wild-type IL-36α
